Experimental data reported in paper PMC11931052, “Efficacy of dispirotripiperazine PDSTP in a golden Syrian hamster model of SARS-CoV-2 infection” (Frontiers in Microbiology, 2025).
Where “and” joins values, the source holds several entries; their conditions need not be identical. Equal values may be shown once. Entries after “also recorded” stand apart in the source; their conditions may differ.

Assays:
[1] = Cytotoxicity (MTT test) in Vero-76 cells; format: cell-based, African Green Monkey (Cercopithecus aethiops); details: African green monkey
Method: The microtetrazolium test (MTT test) was used to study the cytotoxicity of the compounds. Vero cells were seeded in 96-well plates at an initial density of 3×10^5 cells/mL, in Gibco Dulbecco’s Modified Eagle Medium supplemented with L-glutamine and 25 mg/L kanamycin, and 10 % fetal bovine serum (FBS) (DMEM, Thermo Fisher Scientific, Waltham, MA USA). Cell cultures were then incubated at 37 °C in a 5 % CO2 atmosphere, in the absence or presence of serial dilutions of test compounds. The test medium used for the cytotoxic assay as well as for the antiviral assay contained 1 % of the appropriate serum. Cell viability was determined after 72 h at 37 °C by the MTT method as previously reported. The cell viability was expressed as a percentage of the control. The 50% cytotoxic concentration (CC50) of each compound was defined as the concentration of the compound that reduced the absorbance (OD570) of the treated cells to 50% when compared with that of untreated cells. CC50 mean values were calculated from at least three independent experiments.

HCoV-OC43 = assay: MTT test, HCoV-OC43 in Vero-76 cells; format: cell-based; details: Betacoronavirus 1, OC43, Vero 76, read-out: IC50 (HCoV-OC43)
[2] = system: bone marrow, liver, kidney and spleen cells; assay: DNA damage accounting test (DNA Comet); format: in vivo, F1 hybrids of SWAxC57BL/6 mice; details: 400 mg/kg and 1000 mg/kg topically
Method: PDSTP doses tested: 400 mg/kg and 1000 mg/kg
Test subjects: F1 hybrids of SWAxC57BL/6 mice.
Method of administration: topically.

[3] = Acute toxicity, topical application, rats; format: in vivo; details: for LD50: acute toxicity, topical application
[4] = system: SARS-CoV-2 B.1.1 GR MM1/2020/Aug-21 clinical isolate; assay: Golden Syrian hamster model of SARS-CoV-2-induced pneumonia; format: in vivo; details: for Body weight: day 0
[5] = Acute toxicity, intragastric administration, mice; format: in vivo; details: maximum dose 1000 mg/kg
[6] = Acute toxicity, topical application, mice; format: in vivo; details: for LD50: acute toxicity, topical application
[7] = Reproductive toxicity: generative function of sexually mature animals; format: in vivo, white laboratory rats; details: 10% solution topically on 5% of body surface area for 25 days
Excerpt: (§1) PDSTP doses tested: 10% solution
(§2) Test subjects: white laboratory rats of both sexes
The drug was applied topically on 5% of body surface area (3x5 cm area) for 25 days.

[8] = Acute toxicity, intravenous administration, rats; details: both sexes, rat, in vivo, Rats (M/F)
[9] = Immunotoxicity study, long-term topical application; format: in vivo
Excerpt: Conclusion: PDSTP compound has no effect on humoral immunity and functional activity of macrophages when applied topically for 30 days in doses up to 100 TD.

[10] = Acute toxicity, intravenous administration, mice; details: both sexes, mouse, in vivo, Mice (M/F)
[11] = Acute toxicity, intragastric administration, rats; format: in vivo; details: maximum dose 5000 mg/kg
SARS-COV-2 PV10734 [12] = assay: Time-of-addition and cell pre-treatment assay in Vero cells; format: cell-based
SARS-COV-2 PV10734 [13] = assay: Virucidal activity assay; details: 20 µM; 4°C and 37°C for 2 hours
Method: PDSTP (20 µM) was incubated with 3×10^5 PFU/mL of SARS-COV-2 PV10734 at either 4 and 37 °C for 2 hours. The mixture of the viral sample without a test compound was used as an untreated control. At the end of the incubation period, samples were serially diluted in media and titers were determined on Vero-76 cells at high dilutions, at which the compound was not active. Virus titers were determined by plaque assay in Vero-76 cells.

[14] = system: Salmonella typhimurium strains TA 97, TA 98 and TA 100; assay: Ames test (Salmonella/microsome test); details: 0.1 to 1000 µg/ cup; MA+ and MA-
Method: PDSTP doses tested: 0.1 to 1000 µg/ cup.
Test subjects: Salmonella typhimurium strains TA 97, TA 98 and TA 100.
Metabolic activation: MA+ and MA-.

[15] = Chronic toxicity, intranasal administration, rabbits; format: in vivo; details: repeated administration for 14 days, 10-200 mg/kg
[16] = system: herpes simplex epithelial keratitis; set-up: method as in Alimbarova et al., 2022; details: rabbit model; ref Alimbarova et al., 2022; cited from earlier work
[17] = Chronic toxicity, intranasal administration, rats; format: in vivo; details: repeated administration for 14 days, 10-200 mg/kg
[18] = Reproductive toxicity: embryotoxicity study; format: in vivo, white laboratory rats; details: 10% solution, daily topical application, days 6 to 19 of gestation
Excerpt: as §1, §2
Pregnant rats from 6 to 19 days of gestation received daily topical application of PDSTP on 5% of the body surface area (3x5 cm area).

[19] = Acute toxicity, intraperitoneal administration, mice; details: both sexes, mouse, in vivo, ip, Mice (M/F)
[20] = maximum regulated amount applied to the skin
[21] = 10 mg/kg, severity score 0 to 6

For `Cc1nc(N2CC[N+]3(CC2)CC[N+]2(CCNCC2)CC3)c([N+](=O)[O-])c(N2CC[N+]3(CC2)CC[N+]2(CCNCC2)CC3)n1.Cl.Cl.O.O.O.O.O.O.O.O.O.[Cl-].[Cl-].[Cl-].[Cl-]` [PDSTP, 3,3′-(2-methyl-5-nitropyrimidine-4,6-diyl)bis-3,12-diaza-6,9-diazonia-dispiro[5.2.5.2]hexadecane tetrachloride dihydrochloride nonahydrate], which CC50 at 72 h [1] is on record?
The CC50 at 72 h was over 100000 nM.

What about the IC50 (HCoV-OC43) of the same compound?
Its IC50 is 700 ± 400 nM.

And the “Induction of DNA damage (DNA Comet)” value [2]?
Its value is “does not induce DNA damage”.

What about the LD50 [3] of the same compound?
Its LD50 is “greater than 31.25 mg/cm^2”.

And the “Toxicity and local irritant effects on skin” value [3, 20]?
The value was “No manifestations of toxicity and local irritant effects were observed”.

What about the LD50 ([3]; rat, in vivo, topical or ocular, 2500 mg/kg, read-out: LD50) of the same compound?
The LD50 was over 2500 mg/kg.

What about the “Animals with completely reduced SARS-CoV-2-induced lung pathology” value ([4]; 10 mg/kg) of the same compound?
The value was “three”.

What about the Body weight ([4]; 10 mg/kg) of the same compound?
The Body weight was 100,7±0,3 gram.

And the “Animals with lung severity score "mild"” value [4, 21]?
Its value is “two”.

What about the “Animals with lung severity score "none"” value [4, 21] of the same compound?
The value was “three out of six”.

What about the “Animals with completely reduced SARS-CoV-2-induced lung pathology” value ([4]; 20 mg/kg) of the same compound?
Its value is “two”.

And the Body weight ([4]; 20 mg/kg)?
Its Body weight is 94,1±0,4 gram.

And the Body weight ([4]; 40 mg/kg)?
Its Body weight is 96,7±0,3 gram.

What about the “Alveolar edema (histopathology)” value ([4]; 10 or 20 mg/kg) of the same compound?
The value was “moderate”.

What about the “Reduction in lung viral titer vs negative control” value ([4]; […], not statistically significant) of the same compound?
The value was 1.5 log10.

And the “Reduction of viral RNA copy levels in lung tissue vs vehicle” value ([4]; […], statistically non-significant)?
Its value is 2.2 log10.

And the Core body temperature ([4]; all animal groups)?
The Core body temperature was “within the normal range”.

And the Mortality ([4]; all animal groups)?
Its Mortality is “None of the animals died”.

And the Body weight loss ([4]; hamster, in vivo)?
The Body weight loss was “no more than 10%”.

And the “Reduction of viral RNA copy levels in lung tissue vs vehicle” value ([4]; hamster, in vivo)?
Its value is 1.6 log10 and 2.0 log10.

What about the “Viral RNA copy levels in turbinate tissue” value ([4]; hamster, in vivo) of the same compound?
Its value is “statistically significantly diminished”.

And the Clinical signs [5]?
The Clinical signs was “piloerection and diarrhea, deterioration of hair coat, decreased motor activity, and decreased body weight”.

And the Mortality [5]?
Its Mortality is “The death of animals was not recorded”.

And the LD50 [6]?
The LD50 was “greater than 31.25 mg/cm^2”.

And the “Toxicity and local irritant effects on skin” value [6, 20]?
Its value is “No manifestations of toxicity and local irritant effects were observed”.

What about the LD50 ([6]; mouse, in vivo, topical or ocular, 2500 mg/kg, read-out: LD50) of the same compound?
Its LD50 is over 2500 mg/kg.

What about the “Effect on generative function of sexually mature animals” value [7] of the same compound?
The value was “no pathological effect”.

And the LD50 [8]?
The LD50 was 140 mg/kg.

What about the “Effect on cellular immunity” value ([9]; long-term topical applications, immunosuppression only at maximum dose of 100 TD, reversible 14 days after withdrawal) of the same compound?
The value was “tends to suppress cellular immunity”.

What about the “Effect on humoral immunity and functional activity of macrophages” value ([9]; topically for 30 days in doses up to 100 TD) of the same compound?
The value was “no effect”.

And the LD50 [10]?
The LD50 was 150 mg/kg.

What about the Clinical signs [11] of the same compound?
Its Clinical signs is “piloerection and diarrhea, deterioration of hair coat, decreased motor activity, and decreased body weight”.

And the Mortality [11]?
The Mortality was “The death of animals was not recorded”.

And the “Antiviral activity, pre-treatment and early stages of infection” value (SARS-COV-2 PV10734 [12])?
The value was “exhibited antiviral activity”.

What about the “Inhibitory effect at the later stages of infection” value (SARS-COV-2 PV10734 [12]) of the same compound?
Its value is “barely noticeable”.

And the “Virucidal activity (direct impact on viral infectivity)” value (SARS-COV-2 PV10734 [13])?
The value was “no direct impact; also recorded: lacks virucidal activity”.

What about the “Mutagenic activity (Ames test)” value [14] of the same compound?
The value was “no mutagenic activity”.

What about the “Toxic effect on organs and systems” value [15] of the same compound?
The value was “toxic effect on organs and systems was not revealed”.

And the “Reduction of mean progression and corneal lesions” value [16]?
Its value is “comparable to traditional aciclovir”.

What about the “Toxic effect on organs and systems” value [17] of the same compound?
The value was “toxic effect on organs and systems was not revealed”.

And the Embryotoxic effect [18]?
The Embryotoxic effect was “no adverse embryotoxic effect”.

What about the LD50 [19] of the same compound?
Its LD50 is 192 mg/kg.
